In patent US10251835B2, “Cranial delivery of pharmaceuticals” (GLIA, LLC, priority 2013, dated 2019):
“Also recorded” adds a separate entry of the source.

What was measured:
[1] = system: subject with left-side trigeminal neuralgia and facial droop; experiment: Treatment of trigeminal neuralgia and facial palsy; type: in vivo, human; settings: progesterone 1% (1 mg) four times daily to forehead followed by 0.15 g ganciclovir (0.15% formulation) up to five times daily
Protocol: A subject presented with left-side trigeminal neuralgia and left side facial droop of 10 years duration. Therapy was initiated by topically applying progesterone (1% by weight) equivalent to 1 mg four times daily to the patient's forehead. This was followed by application of 0.15 g ganciclovir (as a 0.15% by weight formulation) up to five times daily.

[2] = system: person with blepharospasm; experiment: Treatment of blepharospasm; type: in vivo, human; settings: fourteen days of 1% progesterone gel to forehead; before treatment 73
Source text: Upon ophthalmic re-examination following fourteen days of 1% progesterone gel applied topically to the forehead, the blink rate had decreased to 18 times per minute.

[3] = system: male and female with cyclosporine-induced eye irritation; experiment: Treatment of drug-induced eye irritation; type: in vivo, human; settings: 1% progesterone to forehead after cleaning off drug residual; within two minutes
Source text: Ten minutes later, drug residual was cleaned off from the forehead, and 1% progesterone was applied.

[4] = system: dogs with mucus discharge from the eyes; experiment: Treatment of dry eye in domestic animals; type: in vivo, dog
Source text: A puggle presented with mucus discharge from the eyes. […] The owner reported that the dog has this problem spring and fall, which indicates it is allergic seasonal rhinitis. The reported use took place in the fall.
A bulldog diagnosed with Sjogren's syndrome had mucus discharge from the eyes.

[5] = system: patient with corneal Herpes zoster; experiment: Treatment of herpetic keratitis; type: in vivo, human; settings: one year, 1 mg progesterone to forehead 2 or 3 times a day, no other drugs
[6] = system: patients with ocular discomfort resulting from dry eye; experiment: Treatment of dry eye with topical progesterone applied cranially; type: in vivo, human

## CC(=O)[C@H]1CC[C@H]2[C@@H]3CCC4=CC(=O)CC[C@]4(C)[C@H]3CC[C@]12C [progesterone]
[1]
  facial muscles contracted for 10 years: relaxation of facial muscles
[2]
  blink rate: 18 times per minute
[3]
  relief of cyclosporine-induced irritation and stinging: irritation and stinging began to dissipate
[4]; progesterone to the dog's forehead (puggle; bulldog with Sjogren's syndrome)
  time to effect on mucus discharge from the eyes: ≤ 24 h
[4]; progesterone topical forehead treatment, daily
  mucus discharge from the eyes: the problem no longer recurred; also recorded: cessation of mucus discharge
[5]
  corneal perforation: the cornea remained unperforated
[6]; 1% progesterone TID
  Results: Stopped using lubricating drops. Redness,; also recorded: itching and scaly eyelids disappeared
[6]; subject 18, 1% progesterone 2-3 times/day, increased from 2
  TBUT: TBUT increased from 2 to 8. Long term
